Data as given in patent publication US11077097B2, “Use of aromatic ring drug in inhibiting key transcription factor of malignant melanoma” (SHANGHAI INSTITUTE OF ORGANIC CHEMISTRY, CHINESE ACADEMY OF …, priority 2017, dated 2021).

Tests used:
melanin formation = experiment: Forskolin-induced melanin production; format: cell-based
Text: MITF regulated the transcription and expression of melanin synthase TYR, TYRP1, and is the main regulatory factor of melanin formation. Foskolin, a small molecule compound, could regulate pathway, promote the expression of MITF, and promote melanin production by activating MSH-cAMP-CREB.

B16F10 cells = experiment: MTT cell activity, MITF-dependent melanoma cell line B16F10; format: cell-based; conditions: Mus musculus, B16-F10, MITF-dependent and highly expressed, read-out: IC50 of inhibiting growth of B16F10 cells
Method: (§1) The active TT012 was incubated with MITF-dependent and highly expressed melanoma cell line B16F10, the melanoma cell line A375 with low expression of MITF, and control cell line Hela, respectively, and cell activity was detected by MTT experiment.

Hela cells = experiment: MTT cell activity, control cell line Hela; format: cell-based
Method: as §1

LysRS-p38 interaction = LysRS-p38 interaction (Homo sapiens, UniProt Q13155+Q15046); experiment: AlphaScreen control test, LysRS-p38 interaction; format: binding
Chain of LysRS-p38 interaction (Q15046 whole entry): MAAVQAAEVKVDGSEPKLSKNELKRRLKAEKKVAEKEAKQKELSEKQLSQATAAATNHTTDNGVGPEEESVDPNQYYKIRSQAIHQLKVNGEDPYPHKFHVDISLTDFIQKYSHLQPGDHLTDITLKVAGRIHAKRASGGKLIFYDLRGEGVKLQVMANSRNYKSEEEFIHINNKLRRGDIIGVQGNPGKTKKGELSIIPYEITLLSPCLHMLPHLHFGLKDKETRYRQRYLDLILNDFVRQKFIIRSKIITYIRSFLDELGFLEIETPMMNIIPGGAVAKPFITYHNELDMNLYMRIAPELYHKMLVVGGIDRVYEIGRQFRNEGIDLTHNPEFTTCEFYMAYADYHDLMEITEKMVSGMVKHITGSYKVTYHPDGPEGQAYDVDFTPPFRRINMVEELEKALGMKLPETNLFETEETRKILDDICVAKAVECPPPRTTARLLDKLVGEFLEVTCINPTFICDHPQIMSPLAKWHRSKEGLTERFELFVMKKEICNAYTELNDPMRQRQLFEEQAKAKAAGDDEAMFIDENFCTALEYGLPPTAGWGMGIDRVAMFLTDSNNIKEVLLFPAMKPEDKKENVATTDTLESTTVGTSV
Chain of LysRS-p38 interaction (Q13155 whole entry): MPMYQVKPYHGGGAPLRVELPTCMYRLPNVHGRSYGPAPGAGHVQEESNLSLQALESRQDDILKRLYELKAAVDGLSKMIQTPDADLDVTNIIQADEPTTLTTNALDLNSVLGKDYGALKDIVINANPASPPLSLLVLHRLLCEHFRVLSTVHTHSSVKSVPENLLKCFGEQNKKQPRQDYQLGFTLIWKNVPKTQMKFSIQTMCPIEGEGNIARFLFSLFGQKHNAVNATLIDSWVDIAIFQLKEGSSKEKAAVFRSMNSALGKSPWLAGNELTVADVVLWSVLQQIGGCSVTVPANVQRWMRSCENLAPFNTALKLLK

[1] = system: MITF landmark downstream genes-TYR and TRPM1; experiment: Fluorescent quantitative RT-PCR of MITF downstream genes in B16F10 cells; format: cell-based; conditions: Mus musculus, B16-F10, B16F10 cell line, read-out: IC50 of inhibiting mRNA levels of TYR and TRPM1
Method: TT-012 was incubated with melanoma cell B16F10 cell line, mRNA was extracted and reverse transcripted, and the transcription of MITF landmark downstream genes-TYR (tyrosinase) and TRPM1 (transient receptor potential cation channel M1) were detected by fluorescent quantitative PCR.

A375 cells = experiment: MTT cell activity, melanoma cell line A375 with low expression of MITF; format: cell-based
Method: as §1

MITF dimer = target: T1, MITF dimer (Homo sapiens, UniProt O75030); experiment: AlphaScreen high-throughput screening model MIDAS (MITF Dependent Alpha-Screen), MITF dimer formation; format: binding; conditions: read-out: IC50 of inhibiting formation of MITF dimer
T1 sequence (O75030 1-526): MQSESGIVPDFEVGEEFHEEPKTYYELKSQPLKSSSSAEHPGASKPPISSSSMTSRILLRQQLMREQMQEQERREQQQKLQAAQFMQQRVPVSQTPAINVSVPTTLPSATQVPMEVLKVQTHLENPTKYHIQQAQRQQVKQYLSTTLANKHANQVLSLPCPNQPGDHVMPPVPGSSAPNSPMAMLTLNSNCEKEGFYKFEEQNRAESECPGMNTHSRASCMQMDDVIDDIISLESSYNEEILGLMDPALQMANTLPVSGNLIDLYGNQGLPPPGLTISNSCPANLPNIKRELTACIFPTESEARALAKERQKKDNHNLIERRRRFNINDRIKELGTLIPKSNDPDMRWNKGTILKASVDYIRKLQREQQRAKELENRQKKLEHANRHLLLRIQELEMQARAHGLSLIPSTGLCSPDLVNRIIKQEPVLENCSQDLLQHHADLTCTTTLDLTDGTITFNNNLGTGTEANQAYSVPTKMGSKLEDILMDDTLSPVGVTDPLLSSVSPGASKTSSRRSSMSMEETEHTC
Text: In the AlphaScreen high-throughput screening model MIDAS (MITF Dependent Alpha-Screen), MITF was labeled with a Biotin tag recognized by Alpha donor beads and a His tag recognized by Alpha receptor beads, respectively. When MITF formed a dimer, Alpha Donor beads and Alpha Receptor beads were pulled close to each other and detected by 680 nm excitation light and 520-620 nm emission light, thereby monitoring the formation of MITF dimer.

`O=C(/C=C/c1ccco1)Nc1cccc(NC(=O)/C=C/c2ccco2)n1` [TT-012] was tested, and the “inhibition of melanin formation” value (melanin formation) was “effectively inhibit”, the IC50 (B16F10 cells) was 300 nM and the “killing effect on control cells HELA” value (Hela cells) was “no killing effects”. For the same compound, the “effect on AlphaScreen signal of LysRS-p38 interaction” value (LysRS-p38 interaction) was “not affect”, the IC50 [1] was 2000 nM and the “killing effect on A375 cells” value (A375 cells) was “no killing effects”. The IC50 (MITF dimer) was 10 nM.
